We go through 21 molecules from patent US10689354B2, “Aminoazole derivative” (Teijin Pharma Limited, priority 2015, dated 2020).

The target of assay [1] is T1, human androgen receptor (Homo sapiens, UniProt P10275).
T1 construct: expressed in transfected cells; host or cells: HEK293
T1 sequence (P10275 1-920): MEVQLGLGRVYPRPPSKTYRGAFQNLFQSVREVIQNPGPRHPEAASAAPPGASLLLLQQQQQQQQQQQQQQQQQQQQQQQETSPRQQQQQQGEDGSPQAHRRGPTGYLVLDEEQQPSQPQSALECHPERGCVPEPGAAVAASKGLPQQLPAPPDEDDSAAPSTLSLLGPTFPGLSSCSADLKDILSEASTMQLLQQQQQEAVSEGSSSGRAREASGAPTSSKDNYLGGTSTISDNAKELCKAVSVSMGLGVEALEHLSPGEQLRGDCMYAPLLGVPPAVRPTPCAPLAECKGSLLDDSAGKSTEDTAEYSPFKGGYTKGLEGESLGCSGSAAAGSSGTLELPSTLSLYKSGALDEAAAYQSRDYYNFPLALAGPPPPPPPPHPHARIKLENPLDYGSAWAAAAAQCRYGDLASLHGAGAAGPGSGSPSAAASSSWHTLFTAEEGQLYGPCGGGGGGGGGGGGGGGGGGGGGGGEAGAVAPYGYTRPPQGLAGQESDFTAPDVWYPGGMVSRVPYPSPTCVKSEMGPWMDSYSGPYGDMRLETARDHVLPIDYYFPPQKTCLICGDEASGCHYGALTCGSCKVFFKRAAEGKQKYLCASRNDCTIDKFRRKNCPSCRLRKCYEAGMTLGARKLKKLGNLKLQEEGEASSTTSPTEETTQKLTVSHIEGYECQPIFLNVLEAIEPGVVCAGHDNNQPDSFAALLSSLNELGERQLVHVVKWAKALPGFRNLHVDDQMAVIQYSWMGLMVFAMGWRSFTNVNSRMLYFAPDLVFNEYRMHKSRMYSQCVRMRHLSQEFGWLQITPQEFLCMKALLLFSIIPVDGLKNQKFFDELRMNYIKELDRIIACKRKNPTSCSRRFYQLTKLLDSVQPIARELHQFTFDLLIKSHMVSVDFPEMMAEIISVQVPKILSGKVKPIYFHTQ
Put plainly: Reporter assay of an androgen receptor responsive sequence (luciferase, transiently transfected HEK293 cells). Format: cell-based. Conditions: 24 hours incubation, relative to activity of 100 nM DHT, read-out: AR transcriptive activity (pEC50) (converted). In short, it runs like this: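 Agonism scored as pEC50, fitted by 4-parameter curve against the response to 100 nM DHT, from dual-luciferase readout after 24 h compound treatment. Cells were HEK293 co-transfected (3 h) with human AR expression vector, androgen-responsive firefly reporter and Renilla control, in charcoal-stripped serum.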
(In general: A reporter such as luciferase makes a cellular process visible.)

In assay [2] the target is T2, androgen receptor (AR-LBD) (Rattus norvegicus, UniProt P15207).
T2 construct: 5 μL of 2×AR-LBD/Fluoromone AL Red Complex contained in the kit; purchased Invitrogen
T2 sequence (P15207 651-882 limits assumed): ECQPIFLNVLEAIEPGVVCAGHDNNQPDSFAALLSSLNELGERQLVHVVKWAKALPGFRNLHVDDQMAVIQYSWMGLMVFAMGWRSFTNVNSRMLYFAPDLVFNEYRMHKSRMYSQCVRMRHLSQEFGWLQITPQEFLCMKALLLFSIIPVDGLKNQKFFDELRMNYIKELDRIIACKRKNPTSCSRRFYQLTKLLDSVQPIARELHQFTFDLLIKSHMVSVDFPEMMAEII
Put plainly: Evaluation of androgen receptor affinity (PolarScreen Androgen Receptor Competitor Assay Kit, Red; fluorescence polarization). The note with it: 22° C. for 5 hours, relative to binding rate of 1 μM DHT, read-out: AR affinity (pEC50) (converted). In short, it runs like this: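 FP competition: compound + AR-LBD/Fluoromone AL Red tracer complex, 22° C, 5 h. Reference 1 μM DHT binding rate; pEC50 by 4-parameter fit.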

For the molecule `Cc1sc(N(Cc2cccc(Cl)c2F)c2ccc(C#N)cc2)nc1C(=O)NS(C)(=O)=O` [Compound 107, 2-[N-[(3-chloro-2-fluoro-phenyl)methyl]-4-cyano-anilino]-5-methyl-N-methylsulfonyl-thiazole-4-carboxamide], the EC50 is 31.6 nM in assay [1] and 50.1 nM in assay [2].

For `CCc1oc(N(Cc2cc(F)cc(OC(F)F)c2)c2ccc(C#N)cc2)nc1C(=O)NS(C)(=O)=O` [Compound 656, 2-[4-cyano-N-[[3-(difluoromethoxy)-5-fluoro-phenyl]methyl]anilino]-5-ethyl-N-methylsulfonyl-oxazole-4-carboxamide], the EC50 is 631 nM in assay [1] and 20 nM in assay [2].

Take `COc1ccc(CCN(Cc2ccccc2)c2nc(C(=O)NS(C)(=O)=O)c(C)s2)cc1` [Compound 678, 2-[benzyl-[2-(4-methoxyphenyl)ethyl]amino]-5-methyl-N-methylsulfonyl-thiazole-4-carboxamide]: the EC50 was 1580 nM in assay [1] and 50.1 nM in assay [2].

Consider `Cc1sc(N(Cc2ccccc2)CC(F)(F)c2ccc(Cl)cc2)nc1C(=O)NS(C)(=O)=O` [Compound 329, 2-[benzyl-[2-(4-chlorophenyl)-2,2-difluoro-ethyl]amino]-5-methyl-N-methylsulfonyl-thiazole-4-carboxamide], for which the results for the EC50 in assay [1] and in assay [2] were 3980 nM and 126 nM, respectively.

As for `COc1cccc(CN(CCc2ccc(OC(F)(F)F)cc2)c2nc(C(=O)NS(C)(=O)=O)c(C)s2)n1` [Compound 505, 2-[(6-methoxy-2-pyridyl)methyl-[2-[4-(trifluoromethoxy)phenyl]ethyl]amino]-5-methyl-N-methylsulfonyl-thiazole-4-carboxamide], the EC50 in assay [1] is 2000 nM; in assay [2], 39.8 nM.

Consider `COCCCS(=O)(=O)NC(=O)c1nc(N(Cc2ccc(Cl)cc2)c2ccc(C#N)cc2)sc1C1CC1` [Compound 665, 2-[N-[(4-chlorophenyl)methyl]-4-cyano-anilino]-5-cyclopropyl-N-(3-methoxypropylsulfonyl)thiazole-4-carboxamide], for which the values for the EC50 in assay [1] and in assay [2] were over 10000 nM and 20 nM, respectively.

In the case of `CS(=O)(=O)NC(=O)c1nc(N(Cc2ccccc2F)c2ccc(C#N)cc2)sc1Cl` [Example 257, 5-chloro-2-[4-cyano-N-[(2-fluorophenyl)methyl]anilino]-N-methylsulfonyl-thiazole-4-carboxamide], the EC50 in assay [1] was 79.4 nM; in assay [2] it was 100 nM.

On to `Cc1sc(N(Cc2cc(F)c(F)cc2F)c2ccc(C#N)cc2)nc1C(=O)NS(C)(=O)=O` [Compound 110, 2-[4-cyano-N-[(2,4,5-trifluorophenyl)methyl]anilino]-5-methyl-N-methylsulfonyl-thiazole-4-carboxamide], for which the EC50 in assay [1] is 126 nM; in assay [2] it was 63.1 nM.

With `COc1cccc(CN(CCc2ccc(Cl)cc2)c2nc(C(=O)NS(C)(=O)=O)c(C)s2)n1` [Compound 502, 2-[2-(4-chlorophenyl)ethyl-[(6-methoxy-2-pyridyl)methyl]amino]-5-methyl-N-methylsulfonyl-thiazole-4-carboxamide], the EC50 in assay [1] is 794 nM; in assay [2], 39.8 nM.

On to `CS(=O)(=O)NC(=O)c1nc(N(Cc2ccc(C(F)(F)F)nc2)c2ccc(C#N)cc2)sc1Br` [Compound 645, 5-bromo-2-[4-cyano-N-[[6-(trifluoromethyl)-3-pyridyl]methyl]anilino]-N-methylsulfonyl-thiazole-4-carboxamide], for which the results for the EC50 in assay [1] and in assay [2] were 1260 nM and 63.1 nM, respectively.

For the molecule `Cc1sc(N(Cc2ccc(C(F)F)cc2F)c2ccc(C#N)cc2)nc1C(=O)NS(C)(=O)=O` [Compound 156, 2-[4-cyano-N-[[4-(difluoromethyl)-2-fluoro-phenyl]methyl]anilino]-5-methyl-N-methylsulfonyl-thiazole-4-carboxamide], the EC50 in assay [1] is 63.1 nM; in assay [2] it was 39.8 nM.

In the case of `COCCCS(=O)(=O)NC(=O)c1nc(N(Cc2ccc(F)cc2Cl)c2ccc(C#N)cc2)sc1C` [Example 192, 2-[N-[(2-chloro-4-fluoro-phenyl)methyl]-4-cyano-anilino]-N-(3-methoxypropylsulfonyl)-5-methyl-thiazole-4-carboxamide], the EC50 in assay [1] is 1260 nM; in assay [2], 63.1 nM.

As to `Cc1sc(N(Cc2csc(C(C)C)n2)c2ccc(C#N)cc2)nc1C(=O)NS(C)(=O)=O` [Compound 456, 2-[4-cyano-N-[(2-isopropylthiazol-4-yl)methyl]anilino]-5-methyl-N-methylsulfonyl-thiazole-4-carboxamide], the results for the EC50 in assay [1] and in assay [2] were 200 nM and 50.1 nM, respectively.

With `COCCCS(=O)(=O)NC(=O)c1nc(N(CCc2ccc(C#N)cc2)Cc2ccc(OC(F)F)cc2)oc1C` [Compound 557, 2-[2-(4-cyanophenyl)ethyl-[[4-(difluoromethoxy)phenyl]methyl]amino]-N-(3-methoxypropylsulfonyl)-5-methyl-oxazole-4-carboxamide], the EC50 in assay [1] was 631 nM; in assay [2], 39.8 nM.

Consider `Cc1sc(N(CCc2ccc(OC(F)(F)F)cc2)Cc2ccc(Cl)cn2)nc1C(=O)NS(C)(=O)=O` [Compound 512, 2-[(5-chloro-2-pyridyl)methyl-[2-[4-(trifluoromethoxy)phenyl]ethyl]amino]-5-methyl-N-methylsulfonyl-thiazole-4-carboxamide], for which the EC50 in assay [1] was 1260 nM; in assay [2] it was 100 nM.

As for `Cc1sc(N(Cc2ccccc2)c2ccc(C(F)(F)F)nc2)nc1C(=O)NS(C)(=O)=O` [Example 223, 2-[benzyl-[6-(trifluoromethyl)-3-pyridyl]amino]-5-methyl-N-methylsulfonyl-thiazole-4-carboxamide], the EC50 was 631 nM in assay [1] and 398 nM in assay [2].

Take `CS(=O)(=O)NC(=O)c1nc(N(Cc2ccccc2)c2ccc(C#N)cc2)sc1Br` [Compound 603, 2-(N-benzyl-4-cyano-anilino)-5-bromo-N-methylsulfonyl-thiazole-4-carboxamide]: the EC50 in assay [1] is 31.6 nM; in assay [2], 50.1 nM.

Take `CC(C)c1sc(N(Cc2ccccc2)c2ccc(C#N)cc2)nc1C(=O)NS(C)(=O)=O` [Compound 600, 2-(N-benzyl-4-cyano-anilino)-5-isopropyl-N-methylsulfonyl-thiazole-4-carboxamide]: the EC50 was over 10000 nM in assay [1] and 100 nM in assay [2].

On to `Cc1sc(N(CCc2ccc(C#N)cc2)Cc2ccc(Cl)cc2)nc1C(=O)NS(=O)(=O)Cc1cccnc1` [Compound 321, 2-[(4-chlorophenyl)methyl-[2-(4-cyanophenyl)ethyl]amino]-5-methyl-N-(3-pyridylmethylsulfonyl)thiazole-4-carboxamide], for which the EC50 is 100 nM in assay [1] and 20 nM in assay [2].

In the case of `Cc1sc(N(CCc2ccc(Cl)cc2)Cc2ccc(OC(F)(F)F)cc2)nc1C(=O)NS(=O)(=O)Cc1cccnc1` [Compound 703, 2-[2-(4-chlorophenyl)ethyl-[[4-(trifluoromethoxy)phenyl]methyl]amino]-5-methyl-N-(3-pyridylmethylsulfonyl)thiazole-4-carboxamide], the EC50 in assay [1] was 158 nM; in assay [2] it was 31.6 nM.

Turning to `Cc1sc(N(CCc2ccc(Cl)cc2)c2ccc(C#N)cc2)nc1C(=O)NS(C)(=O)=O` [Compound 133, 2-[N-[2-(4-chlorophenyl)ethyl]-4-cyano-anilino]-5-methyl-N-methylsulfonyl-thiazole-4-carboxamide], the EC50 in assay [1] is 1580 nM; in assay [2] it was 158 nM.
